Experimental data taken from article PMC5096734 (Chembiochem : a European journal of chemical biology, 2014).

Assays:
Test in all cases: fluorogenic hydrolysis, Michaelis-Menten
[1] = system: C. antarctica lipase; type: biochemical, Moesziomyces antarcticus; details: enzyme 10 μg/mL
[2] = system: B. subtilis esterase; type: biochemical, Bacillus subtilis; details: enzyme 0.5 μg/mL
[3] = system: PLE; type: biochemical, Sus scrofa
[4] = target: T1, M. miehei lipase (Rhizomucor miehei, UniProt P19515); type: biochemical; details: enzyme 10 μg/mL
T1 sequence (P19515 95-363): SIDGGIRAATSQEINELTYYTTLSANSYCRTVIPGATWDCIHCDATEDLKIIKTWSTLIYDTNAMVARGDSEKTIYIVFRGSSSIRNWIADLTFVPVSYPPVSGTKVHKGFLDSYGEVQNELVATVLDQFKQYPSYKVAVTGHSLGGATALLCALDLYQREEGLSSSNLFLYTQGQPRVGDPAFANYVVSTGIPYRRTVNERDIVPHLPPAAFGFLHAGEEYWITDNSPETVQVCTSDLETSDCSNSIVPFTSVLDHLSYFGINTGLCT

Compound | Km [1] [µM] | Km [2] [µM] | Km ([3]; enzyme 0.050 μg/mL) [µM] | Km [4] [µM] | Km ([3]; enzyme 0.5 μg/mL) [µM]
CC(=O)OCOc1ccc2nc3ccc(=O)cc-3oc2c1 [Res-AME] | 6.8 ± 0.4 | 19 ± 2 | 4.9 ± 0.7 | – | –
DDAO-AME 1 | 9.5 ± 1.1 | 6.7 ± 0.5 | – | 4.4 ± 0.7 | 7.5 ± 0.8
